Reference: the NIST ThermoML archive (doi:10.1021/je5001523)
Numbers after ± are expanded uncertainties.

Assay: mn = molality of the nth substance listed, in mol/kg
Conditions: 101 kPa, Liquid; for viscosity: Capillary tube (Ostwald / Ubbelohde) method

[Cl-].[Li+] [lithium chloride] + O
Conditions	mass density, 288.15 K [kg/m3]	mass density, 298.15 K [kg/m3]	mass density, 308.15 K [kg/m3]	mass density, 318.15 K [kg/m3]	viscosity, 288.15 K [mPa·s]	viscosity, 298.15 K [mPa·s]	viscosity, 308.15 K [mPa·s]	viscosity, 318.15 K [mPa·s]
m1 = 0.5	1012.05 ± 0.43	1009.46 ± 0.42	1006.13 ± 0.4	1002.07 ± 0.38	1.212 ± 0.008	0.94 ± 0.007	0.76 ± 0.006	0.629 ± 0.006
m1 = 1	1023.76 ± 0.48	1020.94 ± 0.47	–	1012.4 ± 0.43	1.288 ± 0.008	1.002 ± 0.007	0.802 ± 0.006	0.661 ± 0.006
m1 = 2	1045.1 ± 0.59	1041.17 ± 0.57	1036.24 ± 0.54	1031.32 ± 0.52	1.444 ± 0.009	1.112 ± 0.007	0.882 ± 0.006	0.724 ± 0.006
m1 = 3	1062.67 ± 0.67	1057.69 ± 0.65	1051.58 ± 0.62	1047.47 ± 0.6	1.586 ± 0.009	1.229 ± 0.008	0.962 ± 0.007	0.785 ± 0.006
